According to patent publication US20230372289A1, “ANDROGRAPHOLIDE DERIVATIVE FOR USE IN THE TREATMENT OF INFLAMMATORY DISEASES ASSOCIATED WITH A CYTOKINE STORM” (CONSEJO SUPERIOR DE INVESTIGACIONES CIENTÍFICAS (CSIC), priority 2020, published 2023):
Converted amounts (≈) assume the structure as drawn. “Also recorded” adds a separate entry of the source.

How the values were obtained:
[1] = test system: cells involved in the inflammatory response; experiment: Cellular inflammatory response in transgenic larvae (LYZ:Red) after SVCV infection, treatment by microinjection; type: in vivo, Danio rerio; conditions: microinjection 2 nl concomitant with SVCV, 2 hpi, vs control groups
Method: (§1) Anti-inflammatory activity studies of the compounds were carried out in wild type fish, determining the expression levels of the pro-inflammatory cytokines IL-1β and IL-6. Transgenic larvae with labeled fluorescent neutrophils (Tg(Mpx:GFP)i114) or fluorescent myeloid cells (Tg(LYZ:Red)) were also used to assess how different treatments affect the inflammatory response of these cells. The inflammatory stimulus used was both the virus itself, which causes activation of the inflammasome and death of macrophages by pyroptosis (Varela et al. J. Virol. 2016, 88, 12026), as well as an acute stimulus of inflammation generated by a wound in the tail. The migration of fluorescent leukocytes from these transgenic lines was studied by means of microscopy and image analysis.
In a first assay, the cellular response to inflammation was quantified in transgenic Danio rerio larvae (LYZ:Red) after an infection with SVCV treated or untreated (control) with the AG1 compounds (28 μM), AG3 (10 μM), AG4 (10 μM), AG5 (10μM) and EAp (10 μg/ml). The treatments were carried out by microinjection (2 nl in the duct of Cuvier) of the drugs in fish 3 days post-fertilization (5-10 fish/well), concomitantly administering the virus and the different compounds. […] At 2 h post-injection (2 hpi), the number of cells involved in the inflammatory response was determined.

[2] = test system: migration of neutrophils to the wound; experiment: Acute inflammatory response produced by a tail wound, neutrophil migration in Tg(Mpx:GFP)i114 larvae, bath treatment; type: in vivo, Danio rerio; conditions: 10 μM by bath, tail cut after 24 hours, neutrophils counted 24 hours after the wound
Method: as §1
In a second assay, the effect of the different compounds on an acute inflammatory response produced by a wound was analyzed. To that end, transgenic fish with fluorescent neutrophils (Tg(Mpx:GFP)i114) were used and their migration to the affected area was analyzed. The AG1 (5 μM), AG3 (5 μM), AG4 (10 μM), AG5 (10 μM) compounds and EAp (10 μg/ml) were administered by bath and after 24 hours the wound was made by cutting the end area of the tail. After 24 hours, neutrophils that migrated to the area of the wound were counted. […] FIG. 3.

[3] = test system: IL-6; experiment: IL-6 gene expression by qPCR in wild type larvae infected with SVCV, bath treatment; type: in vivo, Danio rerio; conditions: 10 μM bath for 24 h, then SVCV injection, qPCR at 24 h, vs untreated control groups
Method: as §1
In a third and final assay, the gene expression of proinflammatory cytokines was determined in Danio rerio (wild type) larvae treated with the AG1 (5 μM), AG3 (5 μM), AG4 (10 μM), AG5 (10 μM) compounds and EAp (10 μg/ml), and subsequently infected with SVCV. The treatments were carried out in a bath for 24 h on fish 1 day post-fertilization (10 fish/well). The experiment was carried out in quadruplicate (n=4). On the second day post-fertilization each fish was injected (2 nl in the duct of Cuvier) 5×10^4 TCID50/mL of SVCV. At 24 h, the expression of IL-6 was determined by qPCR.

[4] = test system: Wistar rats; experiment: Single intravenous dose toxicity (phase I, OECD 425); type: in vivo; conditions: AG-5 in PBS (3 mg/ml)
Method: (§2) As part of the preclinical toxicity evaluation, the purpose of this study was to define the maximum repeated dose (MRD) of AG-5, formulated as a solution in PBS (3 mg/ml), in a mammalian rodent species under good laboratory practice (GLP) and to provide data of toxicological interest. To this end, a two-phase study was designed: i) in phase I, the product was administered intravenously in a single dose and following OECD guidelines 425 (OECD Guidelines for the testing of chemicals. Guidelines 425: Acute oral toxicity: up and down procedure. Adopted 3 Oct. 2008), to a total of 12 8-week old female Wistar rats by means of a dose escalation process (incremental factor 3.2), the maximum tolerated dose (MTD) was provisionally determined; ii) in phase II, the animals (a total of 8-week old Wistar rats, 15 males and 15 females) were given a daily intravenous administration for 7 days and the MRD was confirmed.
The initial dose to be used in phase I was selected from the sequence of doses included in OECD guidelines 425, that is, 5.5, 17.5 and 30 mg/kg of body weight. The doses to be tested in phase II were determined based on the results obtained in phase I, selecting 3 doses from the dose interval lower than that in which serious toxic effects would have been observed, that is, 15, 20 and 30 mg/kg/day, with 30 mg/kg being the maximum feasible dose (MFD), in application of the ICH M3(R2) guideline (ICH Harmonized Tripartite Guideline. Non-Clinical Safety Studies for the Conduct of Human Clinical Trials and Marketing Authorization for Pharmaceuticals M3 (R2). Current Step 5 version dated 11 Jun. 2009). The study considered the complete assessment of the symptoms, that is, intensity, time of onset and reversibility, the study of analytical (hematological and biochemical) parameters and the determination of the weight of toxicity target organs, to be fundamental.

[5] = test system: Wistar rats; experiment: Repeated dose toxicity, daily intravenous administration for 7 days (phase II); type: in vivo; conditions: AG-5 in PBS (3 mg/ml)
Method: as §2
The initial dose to be used in phase I was selected from the sequence of doses included in OECD guidelines 425, that is, 5.5, 17.5 and 30 mg/kg of body weight. […]

[6] = test system: New Zealand rabbits; experiment: Single intravenous dose toxicity (phase I, OECD 425); type: in vivo; conditions: AG-5 in PBS (3 mg/ml)
Method: (§3) As part of the preclinical evaluation of toxicity, the purpose of this study was to define the MRD of AG-5, formulated as a solution in PBS (3 mg/ml), in a non-rodent mammalian species, that is, rabbit, under GLP and to provide data of toxicological interest.
(§4) To this end, a two-phase study was designed: i) in phase I, the product was administered intravenously in a single dose and following OECD guidelines 425, to a total of 4 New Zealand rabbits (2 males and 2 females) of about 2.5 kg and 12-13 weeks old, and the maximum tolerated dose (MTD) range was provisionally determined; ii) in phase II, the animals (a total of 4 New Zealand rabbits of about 2.5 kg and 12-13 weeks old) were given a daily intravenous administration for 7 days and the MRD that will serve as a reference (highest dose to be used) was confirmed.
(§5) The initial dose to be used in phase I was selected based on the data obtained by the laboratory after the administration of AG-5 in rats at a repeated dose of up to 30 mg/kg, for 7 days. In this study, the dose of 30 mg/kg was established as the MRD to be used in subsequent general toxicity studies. […] The dose to be tested in phase II was determined based on the results obtained in phase I, selecting a dose from the dose interval lower than that at which serious toxic effects would have been observed, with a maximum of 15 mg/kg/day as MFD, in application of the ICH M3(R2) guideline. The study considered the complete assessment of the symptoms, that is, intensity, time of onset and reversibility, the study of analytical (hematological and biochemical) parameters and the determination of the weight of toxicity target organs, to be fundamental.

[7] = test system: New Zealand rabbits; experiment: Repeated dose toxicity, daily intravenous administration for 7 days (phase II); type: in vivo; conditions: AG-5 in PBS (3 mg/ml), intravenous daily for 7 days
Method: as §3, §4, §5

[8] = test system: Salmonella typhimurium strains TA98, TA100, TA102, TA1535 and TA1537; experiment: Ames test; type: cell-based
Method: The aim of the study was to characterize the possible genotoxic effect of the assay product AG-5 by means of the Ames test (Ames et al. Proc. Nat. Acad. Sci. USA 1973, 70, 783). To that end, it was determined in a study carried out under GLP whether AG-5 has the ability to produce gene mutations, either by substitution or by mismatch, in Salmonella typhimurium bacteria histidine (His-) auxotrophs.
The study was carried out with strains TA98, TA100, TA102, TA1535 and TA1537 in the presence and in the absence of metabolic activation (S9 mixture). The doses recommended by the OECD guidelines were tested: 100 mg/ml, that is, equivalent to 5000 μg/plate, and […] other lower concentrations (33.3; 11.1; 3.7 and 1.2 mg/ml). […] The results were negative in the 5 bacterial strains (TA98, TA100, TA102, TA1535 and TA1537) both in the presence and in the absence of metabolic activation.

[9] = Solubility of the product in PBS; type: physicochemical; conditions: aqueous buffer

Row | SMILES | cellular inflammatory response induced by the viral infection (number of cells involved in the inflammatory response) ([1]; 28 μM) | cellular inflammatory response induced by the viral infection (number of cells involved in the inflammatory response) ([1]; 10 μM) | inflammatory response generated by the migration of neutrophils to the wound [2] | IL-6 production (gene expression) in infection by SVCV [3] | LD50 estimated in rats [4] | MTD level in rats in a single dose [4] | signs of toxicity related to the administration ([4]; all doses tested in phase I) | MRD (maximum repeated dose) ([5]; intravenous daily for 7 days) [mg/kg] | changes in analytical parameters, macroscopic alterations in abdominal and thoracic organs, absolute or relative weight of the organs ([5]; intravenous daily for 7 days, 15, 20 and 30 mg/kg) | LD50 estimated in rabbits ([6]; intravenous single dose) | MTD level in rabbits in a single dose ([6]; intravenous single dose) | lethality ([6]; intravenous single dose 15 mg/kg, New Zealand rabbits) | associated signs of toxicity ([6]; intravenous single dose 15 mg/kg, rabbits) | changes in analytical parameters, macroscopic alterations in abdominal and thoracic organs, absolute or relative weight of the organs ([7]; 15 mg/kg, rabbit study) | mortality or alterations in the general symptoms ([7]; 15 mg/kg, rabbit study) | MRD (maximum repeated dose) ([7]; rabbits) [mg/kg] | precipitation of the product or toxicity (preliminary dose test) ([8]; 100 mg/ml (5000 μg/plate) and lower concentrations (33.3; 11.1; 3.7 and 1.2 mg/ml)) | mutagenicity test (gene mutations) ([8]; 5 strains, in the presence and in the absence of metabolic activation (S9 mixture), up to 5000 μg/plate) | solubility [9] [µg/mL]
1 | C=C1CCC2C(C)(CO)C(O)CCC2(C)C1CC=C1C(=O)OCC1O (stereo not shown) [AG1, 3-[2-[-decahydro-6-hydroxy-5-(hydroxy-methyl)-5,8a-dimethyl-2-methylene-1-naphthalenyl]ethylidene]dihydro-4-hydroxy-2(3H)-furanone, reference compound] | significantly reduce | – | – | – | – | – | – | – | – | – | – | – | – | – | – | – | – | – | –
2 | C=C1CC[C@@H]2[C@](C)(CO)[C@H](O)CC[C@@]2(C)[C@@H]1C[C@H](C1=CCOC1=O)S(=O)(=O)O [AG5, 14-deoxy-12(R)-sulfo-andrographolide] | – | significantly reduce | significantly decreased | significantly reduce | greater than 30 mg/kg of body weight | 30 mg/kg of body weight | nor did it produce signs of toxicity | 30 | No toxicologically relevant changes | greater than 15 mg/kg of body weight | 15 mg/kg of body weight | did not produce lethality in any animal | No associated signs of toxicity were observed | No toxicologically relevant changes | did not produce mortality or alterations in the general symptoms | 15 | No precipitation of the product or toxicity was observed | negative; also recorded: did not induce gene mutations | 3000 (≈ 7.24 mM)
